Test results taken from publication PMC3204421 (Frontiers in Pharmacology, 2011).
Each block holds one compound with its values, some of them ahead of it.

Experiments:
[1] = target: T1, GIRK1/GIRK2 channels (AtT20 cells) (Mus musculus, UniProt P48542+P63250); test: GIRK channel fluorescent plate reader assay; format: cell-based
T1 sequence (P63250 1-501): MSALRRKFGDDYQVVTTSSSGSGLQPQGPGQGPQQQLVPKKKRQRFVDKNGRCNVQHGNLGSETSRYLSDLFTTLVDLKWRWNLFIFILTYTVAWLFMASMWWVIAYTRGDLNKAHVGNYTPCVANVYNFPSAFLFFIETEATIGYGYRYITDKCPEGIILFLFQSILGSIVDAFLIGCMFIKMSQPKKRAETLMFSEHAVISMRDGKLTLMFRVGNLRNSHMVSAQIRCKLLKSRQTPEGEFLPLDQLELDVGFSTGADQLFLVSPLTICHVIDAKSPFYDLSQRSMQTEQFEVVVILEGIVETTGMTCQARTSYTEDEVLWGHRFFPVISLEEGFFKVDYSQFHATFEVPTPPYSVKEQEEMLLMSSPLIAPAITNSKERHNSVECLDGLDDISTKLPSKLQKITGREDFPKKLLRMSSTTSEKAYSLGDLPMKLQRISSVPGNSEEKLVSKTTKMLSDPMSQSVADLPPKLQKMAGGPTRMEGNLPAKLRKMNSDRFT
T1 sequence (P48542 1-425): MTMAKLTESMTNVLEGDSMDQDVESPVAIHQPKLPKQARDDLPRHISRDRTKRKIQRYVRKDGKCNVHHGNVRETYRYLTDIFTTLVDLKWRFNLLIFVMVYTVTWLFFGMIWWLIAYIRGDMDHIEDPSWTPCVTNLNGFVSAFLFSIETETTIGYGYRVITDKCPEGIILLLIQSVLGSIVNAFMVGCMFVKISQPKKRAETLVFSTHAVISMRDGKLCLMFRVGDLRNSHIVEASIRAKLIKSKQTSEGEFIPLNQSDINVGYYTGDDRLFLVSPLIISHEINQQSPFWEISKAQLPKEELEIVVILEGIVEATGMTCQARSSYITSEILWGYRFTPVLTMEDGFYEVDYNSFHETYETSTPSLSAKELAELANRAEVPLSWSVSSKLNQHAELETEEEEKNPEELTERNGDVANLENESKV

[2] = system: GIRK1/GIRK4 channels; settings: ref Hashimoto et al., [2008]; Machida et al., [2011]; cited from earlier work
[3] = system: atrial fibrillation; settings: ref Hashimoto et al., [2008]; Machida et al., [2011]; cited from earlier work
[4] = target: T2, GIRK1/GIRK4 channel (cardiac HL-1 cells) (Mus musculus, UniProt P48545+P63250); test: GIRK channel fluorescent plate reader assay; format: cell-based
T2 sequence (P63250 1-501): T1 sequence (P63250 1-501)
T2 sequence (P48545 1-419): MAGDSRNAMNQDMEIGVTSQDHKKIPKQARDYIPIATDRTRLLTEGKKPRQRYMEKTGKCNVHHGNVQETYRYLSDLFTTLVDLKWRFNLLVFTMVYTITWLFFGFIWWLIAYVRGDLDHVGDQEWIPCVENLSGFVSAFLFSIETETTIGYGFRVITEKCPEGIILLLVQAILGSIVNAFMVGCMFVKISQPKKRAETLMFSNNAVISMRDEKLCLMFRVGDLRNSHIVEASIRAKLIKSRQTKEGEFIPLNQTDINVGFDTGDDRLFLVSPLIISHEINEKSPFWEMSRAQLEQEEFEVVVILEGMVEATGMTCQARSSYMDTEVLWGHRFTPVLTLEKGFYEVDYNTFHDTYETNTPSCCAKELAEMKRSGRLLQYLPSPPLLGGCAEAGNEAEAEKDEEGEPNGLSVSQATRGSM

Structure (SMILES): [Ba+2].[Cl-].[Cl-] [BaCl2]
reduction of the somatostatin-mediated fluorescent change ([1]; 0.5 mM, AtT20 cells, n = 6 wells): 67 ± 4%
reduction of the somatostatin-mediated fluorescent change ([1]; 1 mM, AtT20 cells, n = 6 wells): 92 ± 2%
inhibition of the somatostatin-mediated fluorescent change ([1]; 2 mM, 5 min pretreatment, AtT20 cells): complete inhibition

fluorescent change (F/FO) ([1]; 10 mM KCl, depolarization, AtT20 cells): 0.058
fluorescent change (F/FO) ([1]; 20 mM KCl, depolarization, AtT20 cells): 0.13
fluorescent change (F/FO) ([1]; 30 mM KCl, depolarization, AtT20 cells): 0.15
Structure (SMILES): [Cl-].[K+] [KCl]

Structure (SMILES): Cc1cc(CO)nc2cc3c(cc12)OC(C)(C)[C@H](O)[C@H]3NCCc1ccccc1 [NTC-801]
concentration range of GIRK1/GIRK4 channel block [2]: nanomolar concentrations
effect in canine model of atrial fibrillation [3]: converted AF to sinus rhythm

IC50 [4]: 300 nM
IC50 [1]: 200 nM
Structure (SMILES): Cc1nc2c(OCc3ccccc3)cccn2c1CC#N [SCH-28080, 2-methyl-8-(phenylmethoxy)imidazo[1,2-A]pyridine-3-acetonitrile]

change in the fluorescent signal ([1]; 10 μM, AtT20 cells): no change
Structure (SMILES): Nc1ncnc2c1ncn2[C@@H]1O[C@H](CO)[C@@H](O)[C@H]1O [adenosine]

GIRK channel blocking effect ([1]; tested up to 10 μM, AtT20 and HL-1 cells screened, cell line not specified): no blocking effect
Structure (SMILES): N=C(N)NC(=O)c1nc(Cl)c(N)nc1N [amiloride]

EC50 [1]: 1000 nM
peak fluorescent change ([1]; AtT20 cells, n = 6 wells): −0.037
Structure (SMILES): C[N+](C)(C)CCOC(N)=O [carbachol]

Structure (SMILES): COc1ccc2[nH]c([S+]([O-])Cc3ncc(C)c(OC)c3C)nc2c1 (stereo not shown) [omeprazole]
change in GPCR-sensitive fluorescence during treatment ([1]; cell line not specified (AtT20 / HL-1), Figure 5): no change in fluorescence

Structure (SMILES): C[C@H](N)C(=O)NCC(=O)N[C@H]1CSSC[C@@H](C(=O)O)NC(=O)[C@H](CO)NC(=O)[C@H]([C@@H](C)O)NC(=O)[C@H](Cc2ccccc2)NC(=O)[C@H]([C@@H](C)O)NC(=O)[C@H](CCCCN)NC(=O)[C@H](Cc2c[nH]c3ccccc23)NC(=O)[C@H](Cc2ccccc2)NC(=O)[C@H](Cc2ccccc2)NC(=O)[C@H](CC(N)=O)NC(=O)[C@H](CCCCN)NC1=O [somatostatin]
fluorescent change (F/FO) ([1]; 200 nM, AtT20 cells, n = 6 wells): −0.088
